{"source": "patent US7585941B2", "about": "(priority 2004, dated 2009)", "key": {"[1]": {"target": "rMOR-1 (no Exon 4) (Rattus norvegicus, UniProt P33535)", "experiment": "biochemical", "assay_type": "biochemical", "protocol": "(§1) Basal [^35S]GTPγS binding was assessed in membranes from cells stably transfected with the individual variants. The ability multiple concentrations of the indicated opioid to stimulate [^35S]GTPγS binding was determined. […] Results are the means ±S.E.M. of at least three independent determinations."}, "[2]": {"target": "T1, rMOR-1C1 (Rattus norvegicus, UniProt P33535)", "experiment": "biochemical", "assay_type": "biochemical", "protocol": "as §1"}, "[3]": {"target": "rMOR-1D (Rattus norvegicus, UniProt P33535, I238V)", "experiment": "biochemical", "assay_type": "biochemical", "protocol": "as §1"}, "[4]": {"target": "T2, rMOR-1 (Rattus norvegicus, UniProt P33535)", "experiment": "biochemical", "assay_type": "biochemical", "protocol": "as §1"}, "[5]": {"system": "hMOR-1 variants", "conditions": "for range of the maximal inhibitions among the variants: relative efficacy, Table 5"}, "[6]": {"target": "T3, rMOR-1A (Rattus norvegicus, UniProt P33535)", "experiment": "biochemical", "assay_type": "biochemical", "protocol": "as §1"}, "[7]": {"system": "human MOR-1 variants"}, "[8]": {"target": "hMOR-1 (Homo sapiens, UniProt P35372)", "experiment": "biochemical", "assay_type": "binding"}, "[9]": {"target": "T1, rMOR-1C1", "experiment": "biochemical", "assay_type": "binding"}, "[10]": {"target": "T2, rMOR-1", "assay_type": "binding"}, "[11]": {"target": "T4, rMOR-1 (no E4) (Rattus norvegicus, UniProt P33535)", "T4 construct": "rMOR-1 no E 4; expressed in transfected cells", "experiment": "biochemical", "assay_type": "binding"}, "[12]": {"target": "hMOR-1B4 (Homo sapiens, UniProt P35372)", "experiment": "biochemical", "assay_type": "binding"}, "[13]": {"target": "T5, rMOR-1D (Rattus norvegicus, UniProt P33535)", "experiment": "biochemical", "assay_type": "binding"}, "[14]": {"target": "T5, rMOR-1D", "experiment": "biochemical", "assay_type": "biochemical", "protocol": "as §1"}, "[15]": {"target": "hMOR-1B3 (Homo sapiens, UniProt P35372)", "experiment": "biochemical", "assay_type": "binding"}, "[16]": {"target": "hMOR-1A (Homo sapiens, UniProt P35372)", "experiment": "biochemical", "assay_type": "binding"}, "[17]": {"target": "hMOR-1B2 (Homo sapiens, UniProt P35372)", "experiment": "biochemical", "assay_type": "binding"}, "[18]": {"target": "hMOR-1B1 (Homo sapiens, UniProt P35372)", "assay_type": "binding"}, "[19]": {"target": "T3, rMOR-1A", "experiment": "biochemical", "assay_type": "binding"}, "[20]": {"target": "hMOR-1Y (Homo sapiens, UniProt P35372)", "experiment": "biochemical", "assay_type": "binding"}, "[21]": {"conditions": "as an analgesic and as a respiratory depressant; background statement; cited from earlier work"}, "[22]": {"target": "hMOR-1B4 (Homo sapiens, UniProt P35372, I109V)", "experiment": "biochemical", "assay_type": "binding"}, "[23]": {"target": "hMOR-1B5 (Homo sapiens, UniProt P35372)", "conditions": "cho cells"}}, "note": "Where two headings read alike, the source gives them in different places.", "data": [{"compound": "C[C@@H](NC(=O)[C@@H](N)Cc1ccc(O)cc1)C(=O)NCC(=O)N(C)[C@@H](Cc1ccccc1)C(=O)NCCO", "note": "[DAMGO, [D-Ala^2,MePhe^4,Gly(ol)^5]enkephalin]", "values": [{"measurement": "Max Stim (%)", "setting": "[1]; percent increase over basal binding, rMOR-1 (no Exon 4)", "result": "196 ± 37", "unit": "%"}, {"measurement": "Max Stim (%)", "setting": "[2]; percent increase over basal binding, rMOR-1C1", "result": "233 ± 45", "unit": "%"}, {"measurement": "Max Stim (%)", "setting": "[3]; percent increase over basal binding, rMOR-1D", "result": "113 ± 22", "unit": "%"}, {"measurement": "Max Stim (%)", "setting": "[4]; percent increase over basal binding, rMOR-1", "result": "233 ± 44", "unit": "%"}, {"measurement": "range of the maximal inhibitions among the variants", "setting": "[5]", "result": "63-100%"}, {"measurement": "Max Stim (%)", "setting": "[6]; percent increase over basal binding, rMOR-1A", "result": "176 ± 24", "unit": "%"}]}, {"compound": "CC1(C)SSC(C)(C)[C@@H](NC(=O)[C@@H](N)Cc2ccc(O)cc2)C(=O)NCC(=O)N[C@@H](Cc2ccccc2)C(=O)N[C@H]1C(=O)O", "note": "[DPDPE, [D-Pen^2, D-Pen-^5]enkephalin]", "values": [{"measurement": "competition of [3H]DAMGO binding (in words)", "setting": "[7]", "result": "inactive"}]}, {"compound": "CC(C)C[C@H](NC(=O)[C@H](Cc1ccccc1)NC(=O)CNC(=O)[C@@H](CO)NC(=O)[C@@H](N)Cc1ccc(O)cc1)C(=O)N[C@H](C(=O)O)[C@@H](C)O", "note": "[DSLET, [D-Ser^2, Leu^5]enkephalin-Thr^6]", "values": [{"measurement": "Ki", "setting": "[8]", "result": "19.1 ± 5.8", "unit": "nM"}, {"measurement": "Ki", "setting": "[9]", "result": "45 ± 8.7", "unit": "nM"}, {"measurement": "Ki", "setting": "[10]", "result": "30.9 ± 1.9", "unit": "nM"}, {"measurement": "EC50", "setting": "[1]", "result": "690 ± 179", "unit": "nM"}, {"measurement": "Max Stim (%)", "setting": "[1]", "result": "226 ± 15", "unit": "%"}, {"measurement": "Ki", "setting": "[11]", "result": "24.2 ± 1.9", "unit": "nM"}, {"measurement": "Ki", "setting": "[12]", "result": "22.3 ± 2", "unit": "nM"}, {"measurement": "Ki", "setting": "[13]", "result": "27.3 ± 7.3", "unit": "nM"}, {"measurement": "EC50", "setting": "[2]", "result": "253 ± 75", "unit": "nM"}, {"measurement": "Max Stim (%)", "setting": "[2]", "result": "312 ± 19", "unit": "%"}, {"measurement": "Max Stim (%)", "setting": "[3]", "result": "187 ± 19", "unit": "%"}, {"measurement": "EC50", "setting": "[14]", "result": "540 ± 129", "unit": "nM"}, {"measurement": "Ki", "setting": "[15]", "result": "16.4 ± 2.8", "unit": "nM"}, {"measurement": "Ki", "setting": "[16]", "result": "19.7 ± 7.7", "unit": "nM"}, {"measurement": "Ki", "setting": "[17]", "result": "34.4 ± 6.4", "unit": "nM"}, {"measurement": "Ki", "setting": "[18]", "result": "13.9 ± 4.9", "unit": "nM"}, {"measurement": "EC50", "setting": "[4]", "result": "76 ± 17", "unit": "nM"}, {"measurement": "Max Stim (%)", "setting": "[4]", "result": "251 ± 5", "unit": "%"}, {"measurement": "EC50", "setting": "[6]", "result": "127 ± 45", "unit": "nM"}, {"measurement": "Max Stim (%)", "setting": "[6]", "result": "206 ± 23", "unit": "%"}, {"measurement": "Ki", "setting": "[19]", "result": "44.5 ± 5.1", "unit": "nM"}, {"measurement": "Ki", "setting": "[20]", "result": "15.4 ± 3.5", "unit": "nM"}]}, {"compound": "COc1ccc2c3c1O[C@H]1[C@@H](O)C=C[C@H]4[C@@H](C2)N(C)CC[C@@]341", "note": "[codeine]", "values": [{"measurement": "effectiveness orally relative to parenterally", "setting": "[21]", "result": "approximately 60%"}]}, {"compound": "CC[C@H](C)[C@H](NC(=O)[C@H](C)NC(=O)[C@H](CC(N)=O)NC(=O)[C@H](CCCCN)NC(=O)[C@H](Cc1ccccc1)NC(=O)[C@H](CC(C)C)NC(=O)[C@@H](NC(=O)[C@@H](NC(=O)[C@H](CC(C)C)NC(=O)[C@@H]1CCCN1C(=O)[C@@H](NC(=O)[C@H](CCC(N)=O)NC(=O)[C@H](CO)NC(=O)[C@H](CCCCN)NC(=O)[C@H](CCC(=O)O)NC(=O)[C@H](CO)NC(=O)[C@@H](NC(=O)[C@H](CCSC)NC(=O)[C@H](Cc1ccccc1)NC(=O)CNC(=O)CNC(=O)[C@@H](N)Cc1ccc(O)cc1)[C@@H](C)O)[C@@H](C)O)C(C)C)[C@@H](C)O)C(=O)N[C@H](C(=O)N[C@@H](CCCCN)C(=O)N[C@@H](CC(N)=O)C(=O)N[C@@H](C)C(=O)N[C@@H](Cc1ccc(O)cc1)C(=O)N[C@@H](CCCCN)C(=O)N[C@@H](CCCCN)C(=O)NCC(=O)N[C@@H](CCC(=O)O)C(=O)O)[C@@H](C)CC", "note": "[β-Endorphin]", "values": [{"measurement": "affinity for hMOR-1B4 compared to other variants (in words)", "setting": "[22]", "result": "lower affinities"}, {"measurement": "IC50 value variation between hMOR-1 and hMOR-1B5", "setting": "[23]", "result": "over 16 fold"}, {"measurement": "affinity for hMOR-1B2 compared to other variants (in words)", "setting": "[17]", "result": "lower affinities"}, {"measurement": "variation of IC50 values among the variants", "setting": "[5]; cAMP inhibition, among human variants", "result": "3- to 16 fold"}, {"measurement": "range of the maximal inhibitions among the variants", "setting": "[5]", "result": "72-100%"}]}, {"compound": "Endomorphin 1", "values": [{"measurement": "EC50/Ki", "setting": "[1]", "result": 25.9}, {"measurement": "Max Stim (%)", "setting": "[1]", "result": "189 ± 16", "unit": "%"}, {"measurement": "EC50/Ki", "setting": "[2]", "result": 13.8}, {"measurement": "Max Stim (%)", "setting": "[2]", "result": "377 ± 40", "unit": "%"}, {"measurement": "EC50/Ki", "setting": "[3]", "result": 25.6}, {"measurement": "Max Stim (%)", "setting": "[3]", "result": "145 ± 29", "unit": "%"}, {"measurement": "affinity for hMOR-1B2 compared to other variants (in words)", "setting": "[17]", "result": "relative lower affinities"}, {"measurement": "EC50/Ki", "setting": "[4]", "result": 3.4}, {"measurement": "Max Stim (%)", "setting": "[4]", "result": "320 ± 23", "unit": "%"}, {"measurement": "EC50/Ki", "setting": "[6]", "result": 2.3}, {"measurement": "Max Stim (%)", "setting": "[6]", "result": "205 ± 34", "unit": "%"}]}, {"compound": "Endomorphin 2", "values": [{"measurement": "fold less potent in competing binding to hMOR-1", "setting": "[8]", "result": "5- to 7 fold"}]}]}
